Data: US10653672B2, “Myogenesis promotor, muscle atrophy inhibitor, medical composition and TAZ activator” (National University Corporation Tokyo Medical and Dental …, priority 2014, dated 2020)
Where “and” joins values, the source holds several entries; their conditions need not be identical. Identical values can stand only once.

Key:
Balb/c ByJ mice = assay: Suppression of dexamethasone-induced muscle atrophy; assay type: in vivo, mouse; conditions: 20 μL of 25 mg/mL stock intraperitoneally each day for a week; day 14
Experimental: (1) A 25 mg/mL dexamethasone stock solution in DMSO was prepared. Three Balb/c ByJ mice (6 week, female) were intraperitoneally injected with 20 μL of the dexamethasone stock solution, each day for a week. As a control group, three other individuals were injected with 20 μL of DMSO. On day 9, 11 and 13, each group of the mice was injected with a solution prepared by dissolving 0.3 μL of 10 mM IBS008738 stock solution in 100 μL PBS, on one hindlimb muscle, and with 100 μL PBS on the other hindlimb muscle. The mice were sacrificed at day 14, and the muscle tissues were fixed and stained with hematoxylin and eosin (see FIG. 8D). It was observed that the muscle fibers of the mice administered with dexamethasone were shrinked.
(2) The cross section of the muscle fibers of the individual intraperitoneally injected with dexamethasone was stained with an anti-laminin antibody and observed. […] The cross-section area of muscle fibers (500 per individual) of the three mice was measured. As a result, the area of the individual injected with IBS008738 was greater than the area of the individual injected with DMSO (see FIG. 9F). The cross-section area of muscle fibers was analyzed with Image J software.

C2C12 cells = assay: Antagonistic action on myostatin in C2C12 cells; assay type: cell-based, mouse; conditions: differentiation condition 72 hours
Source text: Myostatin is a protein and a member of a transforming growth factor […] superfamily, and inhibits muscle growth and differentiation. Myostatin binds activin type IIB receptor and triggers SMAD2/3-dependent signaling. Since TAZ interacts with SMAD2/3, effects of IBS008738 on the signaling of myostatin was examined (FIGS. 8A to 8C). The line in the figures is 100 μm. The line and the error bar indicate the average value and the standard error, *p<0.05, […], ***p<0.001, ns refers to not significant.
(1) C2C12 cells in which TAZ was knocked down (si TAZ) and C2C12 cells in which TAZ was not knocked down (si Cont) were grown to confluence, respectively, A stock solution of 100 μg/mL myostatin in 4 mM […] with 0.1% (w/v) BSA and a stock solution of 10 mM IBS008738 in DMSO were prepared. The cells were cultured at differentiation condition for 72 hours in a 1 mL medium with 1 μL DMSO, a 1 mL medium with 1 μL myostatin stock solution, and a 1 mL medium with 1 μL IBS008738 stock solution. As a result, muscle formation of the C2C12 cells was inhibited in the case with only myostatin, but muscle formation of the C2C12 cells was recovered in the case with myostatin and IBS008738.
(2) The fusion index of C2C12 cells in which TAZ was knocked down (si TAZ) and C2C12 cells in which TAZ was not knocked down (si Cont), after being cultured under differentiation condition for 72 hours, was analyzed.
Expression of MHC of C2C12 cells in which TAZ was knocked down (si TAZ) and C2C12 cells in which TAZ was not knocked down (si Cont), after being cultured under differentiation condition for 72 hours, was analyzed by immunoblotting. As a result, expression of MHC decreased in the case with only myostatin, whereas it recovered in the case with myostatin and IBS008738 (see FIG. 8C).

Row | Compound | muscle fibers of the mice administered with dexamethasone (Balb/c ByJ mice) | muscle formation of the C2C12 cells (C2C12 cells; TAZ not knocked down, 1 μL myostatin stock (100 μg/mL) and/or 1 μL 10 mM IBS008738 stock in 1 mL medium) | expression of MHC (C2C12 cells; immunoblotting) | Fusion index (C2C12 cells; siCont C2C12 cells) | Fusion index (C2C12 cells; siTAZ C2C12 cells)
1 | C[C@@H]1C[C@H]2[C@@H]3CCC4=CC(=O)C=C[C@]4(C)[C@@]3(F)[C@@H](O)C[C@]2(C)[C@@]1(O)C(=O)CO [dexamethasone, reference compound] | shrinked |  |  |  | 
2 | myostatin [MSTN] |  | inhibited | decreased | 0.06 and 0.05 | 0.02 and 0.03 and 0.04
